Reference: patent publication US6395473B1, “Adenoviral based promoter assay” (Merck & Co., Inc., priority 1998, dated 2002)

System: rat glutathione S-transferase Ya subunit promoter
Assay: CAT reporter activity induction in HepG2 cells carrying the rat GST Ya promoter/CAT construct
Type: cell-based
Details: HepG2 cells infected with pdelE1sp1B-1.6CAT, a-NF 50 mM
Source text: DNA coding for a promoter/reporter rat glutathione S-transferase Ya subunit 1.6 kb promoter sequence positioned upstream of the chloramphenicol acetyltransferase reporter gene was cloned into the adenovirus shuttle vector pdelE1sp1B, whereby the E1B genome of the adenovirus is deleted and replaced. Successful construction of the shuttle vector, pdelE1sp1B-1.6CAT was verified by both restriction mapping and by sequencing across the 5′- and 3′-ends of the cloning sites. In addition, the shuttle vector was tested functionally in HepG2 cells for regulation of expression of CAT by a-napthoflavone ([…]).
HepG2 cells were seeded in 12- or 24-well plates at a density of 60-70% confluence. Cells were infected the following day with Ad1.6CAT (9.7×10^8 pfu/ml) at an MOI of 5 for 1 h. At the end of the infection period the virus was removed, the cells were rinsed once with PBS, and fresh media was placed on the cells. […]
HepG2 cells were harvested at various time points following induction of CAT expression. […] CAT activity determined by the method of Gorman et al. using 10 ug of protein for 60 minute at 37° C. Acetylated products of chloramphenicol were extracted with mixed xylenes and quantitated by liquid scintillation counting. Results were expressed as fold induction versus control.

**Q.** With `O=c1cc(-c2ccccc2)oc2c1ccc1ccccc12` [a-NF, a-napthoflavone] as the compound, how does the “Induction of CAT activity (fold induction versus control)” value (after 24 hours) read?
**A.** The value was “approximately 45 fold”.

**Q.** What about the “Induction of CAT activity (fold induction versus control)” value (after 48 hours) of the same compound?
**A.** Its value is “approximately 85 fold”.
